The results in this text go back to patent publication US20240216304A1, “CAPSAICIN AND TRPV1 MODULATOR COMPOSITIONS AND METHODS OF USE THEREOF” (The Children's Hospital of Philadelphia, priority 2020, published 2024).

The subject of series [1] is Diabetic Mice. Put plainly: Capsaicinoid-fatty acid combinations on glucose tolerance and insulin sensitivity in diabetic mice. Format: in vivo. Conditions: administered in the absence of OA (capsaicin 5 mg/kg, DHC 1 mg/kg); groups discontinued after first 72 hours (6 doses). How it is done: Eighty-four male db db mice (BKS. CG-Dock7m+/+LeprdbJ) are randomized at 8 weeks of age to produce seven equivalent groups (n=12/group) with respect to 4-hour fasting glucose and body weight. Treatment groups are as follow: Control (untreated); Capsaicin (5 mg/kg)+OA (615 mg/kg); DHC (1 mg/kg)+OA (615 mg/kg); capsaicin (10 mg/kg)+OA (615 mg/kg); DHC (10 mg/kg)+OA (615 mg/kg); capsaicin (5 mg/kg); DHC (1 mg/kg). Animals are administered the formulations via oral gavage in a volume of 5 mL/kg) twice daily for 28 days. Blood glucose is measured following a four hour fast on days 0, 7, 14, 21 and 28. On day 28, an oral glucose tolerance test (OGTT) is performed following a four-hour fast. Glucose (1.2 g/kg) is dosed at […], and glucose and insulin are measured at t=−60 minutes, 0, 15, 30, 60, 120, 180 and 240 minutes.

Series [2] addresses T1, TRPV1 (Homo sapiens, UniProt Q8NER1).
T1 construct: TRPV1 primary signaling in Human dorsal root ganglia (DRG) neurons in culture; endogenous in cells; host or cells: human dorsal root ganglia (DRG) neurons in culture
Briefly: Capsaicinoid-induced TRPV1 signaling in DRG neurons, Fluo-8 calcium imaging. Format: cell-based. The conditions noted are these: for treated neurons responding: agonist alone. An excerpt:
The aim of this study was to evaluate the effects of oleic acid on antagaonizing capsaicinoid-induced TRPV1 primary signaling in Human dorsal root ganglia (DRG) neurons in culture. Human DRG neurons were studied in a perfusion system using the calcium dye Fluo-8. Detection of intracellular calcium transients was accomplished by measuring the changes in the fluorescence intensity of the Fluo-8 calcium indicator upon excitation at 480 nm and recording of the emitted signal at 520 nm using a pcoEDGE sCMOS camera mounted on an inverted microscope (Olympus IX71). The following protocol was utilized to study the effects of the fatty acids on capsaicin and DHC-stimulated calcium currents.

T1 sequence (Q8NER1 whole entry): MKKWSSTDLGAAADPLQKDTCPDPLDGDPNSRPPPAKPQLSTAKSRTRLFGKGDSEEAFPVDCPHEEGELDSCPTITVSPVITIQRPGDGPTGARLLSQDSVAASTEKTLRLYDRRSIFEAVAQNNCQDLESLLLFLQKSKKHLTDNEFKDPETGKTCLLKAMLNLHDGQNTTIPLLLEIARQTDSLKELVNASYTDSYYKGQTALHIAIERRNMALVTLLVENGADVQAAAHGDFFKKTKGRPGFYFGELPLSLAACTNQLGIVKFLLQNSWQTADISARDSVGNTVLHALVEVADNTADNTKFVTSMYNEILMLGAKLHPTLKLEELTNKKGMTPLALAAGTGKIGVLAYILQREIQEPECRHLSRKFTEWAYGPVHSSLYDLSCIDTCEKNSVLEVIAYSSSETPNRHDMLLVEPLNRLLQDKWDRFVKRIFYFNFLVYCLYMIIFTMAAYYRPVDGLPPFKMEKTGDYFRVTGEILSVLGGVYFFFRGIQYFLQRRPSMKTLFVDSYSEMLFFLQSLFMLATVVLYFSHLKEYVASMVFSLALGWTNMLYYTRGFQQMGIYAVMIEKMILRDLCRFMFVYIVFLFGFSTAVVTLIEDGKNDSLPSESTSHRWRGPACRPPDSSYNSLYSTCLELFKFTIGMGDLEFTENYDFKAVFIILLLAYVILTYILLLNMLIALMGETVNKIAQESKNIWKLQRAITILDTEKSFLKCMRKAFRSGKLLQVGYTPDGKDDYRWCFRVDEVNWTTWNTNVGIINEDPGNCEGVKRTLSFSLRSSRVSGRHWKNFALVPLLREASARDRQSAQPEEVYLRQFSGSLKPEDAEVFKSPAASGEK

As to `COc1cc(CNC(=O)CCCCCCC(C)C)ccc1O` [DHC, dihydrocapsaicin], the tolerability entry in series [1] was “poorly tolerated”. Further, the “maximal calcium (ΔF/F0) signal” value in series [2] (DHC alone) was 4.57. Also, the treated neurons responding in series [2] is given as 59%.

Take `COc1cc(CNC(=O)CCCC/C=C/C(C)C)ccc1O` [capsaicin, (6E)-N-[(4-Hydroxy-3-methoxyphenyl)methyl]-8-methylnon-6-enamide]: the tolerability entry in series [1] is listed as “poorly tolerated”. Moreover, the treated neurons responding in series [2] is 74%.

In the case of `CCCCCCCC/C=C\CCCCCCCC(=O)O` [oleic acid], the “maximal calcium (ΔF/F0) signal” value in series [2] (DHC as agonist, with oleic acid administration) stood at 2.81. Also, the neurons responding is 38% in series [2] (DHC as agonist, with oleic acid administration (DHC alone 59%)) and 51% in series [2] (capsaicin as agonist, with oleic acid administration (capsaicin alone 74%)).
